Target: T1, DYRK1A (Homo sapiens (Human), UniProt Q13627)
Experiment: not given
Settings: cited from earlier work

| SMILES | mode of DYRK1A inhibition |
| --- | --- |
| O=C(O[C@@H]1Cc2c(O)cc(O)cc2O[C@@H]1c1cc(O)c(O)c(O)c1)c1cc(O)c(O)c(O)c1 [EGCG, Epigallocatechin gallate] | non-ATP competitive DYRK1A inhibitor |

Target: T1, DYRK1A
Experiment: DYRK1A Inhibition Assay
Format: biochemical
Settings: Compounds of Formula (I); DYRK1A 1 nM, ATP 20 μM, Ser/Thr 18 peptide 2 μM, 90 minutes; read-out: DYRK1 IC50
Description: DYRK1A—Invitrogen #PV4105
• Ser/Thr 18 peptide—Invitrogen #PR8227U • Phos-Ser/Thr 18 peptide—Invitrogen #PR8229U • Assay plate—PerkinElmer #6007279 • ATP—Sigma #A7699-5G • Development reagent A—Invitrogen #PR5194B • Development buffer—Invitrogen #PR4876B Compound preparation • 1. Test compounds were diluted to 1 mM in DMSO • 2. Stock was further diluted 3-fold using Echo platform • 3. 100 nL of DMSO into Columns 1 and 24 and 100 nL of compounds dilutions to Columns 2-23 in a plate.
• 1. Add 5 μL enzyme & substrate mixture to each well in Column 2-23 and A24-H24 wells of the 384-well assay plate; • 2. Add 5 μL 0% Phosphorylation control to A1-H1 and I24-P24 wells of the assay plate; • 3. Add 5 μL 100% Phosphorylation control to I1-P1 wells of the assay plate; • 4. Spin the assay plate (1000 rpm, 1 minute @23° C.); • 5. Incubate enzyme with compounds for 15 minutes at 23° C.; • 6. Add 5 μL ATP solution to each well of the assay plate; • 7. Spin the plate (1000 rpm, 1 minute @23° C.); • 8. Incubate the assay plate for 90 minutes at 23° C.; • 9. Add 10 μL Development reagent A to each well of the assay plate; • 10. Centrifuge the plate at 1000 rpm about 15 seconds and seal a film over assay plate. Incubate the assay plate for 30 minutes at 23° C. • 11. Read assay plates on Envision (see Tables A-D).
Final Compound Concentrations
• Assay buffer: 50 mM Hepes pH7.5, 10 mM MgCl2, 1 mM EDTA, 0.01% Brij-35 • DYRK1A: 1 nM • ATP: 20 μM • Ser/Thr 18 peptide: 2 μM • Reaction time: 90 minutes

| SMILES | IC50 |
| --- | --- |
| Cn1cc(-c2ccc3cnc4c(c3c2)c([C@H]2CC[C@@H](N(C)C)CC2)cn4C)cn1 [Compound 49, (1s,4s)-N,N-dimethyl-4-(3-methyl-8-(1-methyl-1H-pyrazol-4-yl)-3H-pyrrolo[2,3-c]isoquinolin-1-yl)cyclohexan-1-amine] | 10 to 100 nM |
| Cn1cc(-c2ccc3cnc4c(c3c2)c([C@H]2CC[C@H](N(C)C)CC2)cn4C)cn1 [Compound 50, (1r,4r)-N,N-dimethyl-4-(3-methyl-8-(1-methyl-1H-pyrazol-4-yl)-3H-pyrrolo[2,3-c]isoquinolin-1-yl)cyclohexan-1-amine] | 10 to 100 nM |
| Cc1c(-c2cccc(C(=O)O)c2)[nH]c2ncc3ccncc3c12 [Compound 52, 3-(9-methyl-7H-pyrrolo[2,3-c][2,6]naphthyridin-8-yl)benzoic acid] | 100 to 1000 nM |
| Cc1c(-c2cccnc2)[nH]c2ncc3cnccc3c12 [Compound 53] | 100 to 1000 nM |
| Cc1c(C2CCN(CCF)CC2)[nH]c2ncc3ccc(-c4cnn(C)c4)cc3c12 [Compound 54, 2-(1-(2-fluoroethyl)piperidin-4-yl)-1-methyl-8-(1-methyl-1H-pyrazol-4-yl)-3H-pyrrolo[2,3-c]isoquinoline] | ≤ 10 nM |
| Cc1c(C2CCN(CC(F)F)CC2)[nH]c2ncc3ccc(-c4cnn(C)c4)cc3c12 [Compound 55, 2-(1-(2,2-difluoroethyl)piperidin-4-yl)-1-methyl-8-(1-methyl-1H-pyrazol-4-yl)-3H-pyrrolo[2,3-c]isoquinoline] | ≤ 10 nM |
| Cc1c(C2CCN(CC(C)(C)O)CC2)[nH]c2ncc3ccc(-c4cnn(C)c4)cc3c12 [Compound 56, 2-methyl-1-(4-(1-methyl-8-(1-methyl-1H-pyrazol-4-yl)-3H-pyrrolo[2,3-c]isoquinolin-2-yl)piperidin-1-yl)propan-2-ol] | ≤ 10 nM |
| CN1CCC(c2c(C(F)(F)F)[nH]c3ncc4cc(-c5cnco5)ccc4c23)CC1 [Compound 57, 5-(1-(1-methylpiperidin-4-yl)-2-(trifluoromethyl)-3H-pyrrolo[2,3-c]isoquinolin-7-yl)oxazole] | > 1000 nM |
| Cn1cc(-c2ccc3cnc4ncn(C5CCC5)c4c3c2)cn1 [Compound 58, 1-cyclobutyl-8-(1-methyl-1H-pyrazol-4-yl)-1H-imidazo[4,5-c]isoquinoline] | 10 to 100 nM |
| C(#CC1CCOCC1)c1ncc(-c2ccc3cnc4[nH]ccc4c3c2)s1 [Compound 59] | ≤ 10 nM |
| Cn1ccc2c3cc(-c4cnc(C#CC5CCOCC5)s4)ccc3cnc21 [Compound 60] | 10 to 100 nM |
| CN1CCC(C#Cc2ncc(-c3ccc4cnc5[nH]ccc5c4c3)s2)CC1 [Compound 61, 2-((1-methylpiperidin-4-yl)ethynyl)-5-(3H-pyrrolo[2,3-c]isoquinolin-8-yl)thiazole] | ≤ 10 nM |
| CN1CCC(C#Cc2ncc(-c3ccc4cnc5c(ccn5C)c4c3)s2)CC1 [Compound 62, 5-(3-methyl-3H-pyrrolo[2,3-c]isoquinolin-8-yl)-2-((1-methylpiperidin-4-yl)ethynyl)thiazole] | 10 to 100 nM |
| Cc1c[nH]c2ncc3ccc(-c4cnc(C#CC5CCOCC5)s4)cc3c12 [Compound 63] | ≤ 10 nM |
| Cc1cc2c(ncc3ccc(-c4cnc(C#CC5CCOCC5)s4)cc32)[nH]1 [Compound 64] | 10 to 100 nM |
| O[C@H]1CCN(c2cncc(-c3ccc4cnc5[nH]cc(C6CCC6)c5c4c3)c2)C1 [Compound 66, (S)-1-(5-(1-cyclobutyl-3H-pyrrolo[2,3-c]isoquinolin-8-yl)pyridin-3-yl)pyrrolidin-3-ol] | ≤ 10 nM |
| O[C@@H]1CCN(c2cncc(-c3ccc4cnc5[nH]cc(C6CCC6)c5c4c3)c2)C1 [Compound 67, (R)-1-(5-(1-cyclobutyl-3H-pyrrolo[2,3-c]isoquinolin-8-yl)pyridin-3-yl)pyrrolidin-3-ol] | ≤ 10 nM |
| O[C@H]1CCN(c2cncc(-c3ccc4cnc5[nH]c(C6CCC6)cc5c4c3)c2)C1 [Compound 69] | 10 to 100 nM |
| O[C@@H]1CCN(c2cncc(-c3ccc4cnc5[nH]c(C6CCC6)cc5c4c3)c2)C1 [Compound 70] | 10 to 100 nM |
| O=C(O)c1ccc2c(cnc3c2cnn3CC2CCOCC2)c1 [Compound 71] | 100 to 1000 nM |

| SMILES | IC50 |
| --- | --- |
| Cn1cc(-c2ccc3cnc4cc(C5CCOCC5)sc4c3c2)cn1 [Compound 72] | ≤ 10 nM |
| c1ncc(-c2ccc3cnc4cc(C5CCOCC5)sc4c3c2)o1 [Compound 73, 5-(2-(tetrahydro-2H-pyran-4-yl)thieno[3,2-c]isoquinolin-8-yl)oxazole] | 10 to 100 nM |
| Cn1cc(-c2ccc3cnc4c(c3c2)CCO4)cn1 [Compound 74, 8-(1-methyl-1H-pyrazol-4-yl)-1,2-dihydrofuro[2,3-c]isoquinoline] | 10 to 100 nM |
| c1ncc(-c2ccc3cnc4c(c3c2)CCO4)s1 [Compound 75, 8-(thiazol-5-yl)-1,2-dihydrofuro[2,3-c]isoquinoline] | 10 to 100 nM |
| Cn1cc(-c2ccc3cnc4occc4c3c2)cn1 [Compound 76, 8-(1-methyl-1H-pyrazol-4-yl)furo[2,3-c]isoquinoline] | 10 to 100 nM |
| c1nc2c(ncc3ccc(-c4cncs4)cc32)[nH]1 [Compound 77] | ≤ 10 nM |
| c1ncc(-c2ccc3cnc4cc(C5CCOCC5)sc4c3c2)s1 [Compound 78, 2-(tetrahydro-2H-pyran-4-yl)-8-(thiazol-5-yl)thieno[3,2-c]isoquinoline] | ≤ 10 nM |
| Cc1ncc(-c2ccc3cnc4cc(C5CCOCC5)sc4c3c2)s1 [Compound 79, 8-(2-methylthiazol-5-yl)-2-(tetrahydro-2H-pyran-4-yl)thieno[3,2-c]isoquinoline] | 10 to 100 nM |
| Cc1nc2ncc3ccc(-c4cnn(C)c4)cc3c2s1 [Compound 80] | 100 to 1000 nM |
| Cn1cc(-c2ccc3cnc4nc(C5CCOCC5)sc4c3c2)cn1 [Compound 81, 8-(1-methyl-1H-pyrazol-4-yl)-2-(tetrahydro-2H-pyran-4-yl)thiazolo[4,5-c]isoquinoline] | 100 to 1000 nM |
| Cn1cc(-c2ccc3cnc4nc(C5CCOCC5)oc4c3c2)cn1 [Compound 82, 8-(1-methyl-1H-pyrazol-4-yl)-2-(tetrahydro-2H-pyran-4-yl)oxazolo[4,5-c]isoquinoline] | 100 to 1000 nM |
| O=C1Cc2c(ncc3cc(-c4cnco4)ccc23)N1 [Compound 83] | 100 to 1000 nM |
| Cn1cc(-c2ccc3c4c(ncc3c2)NC(=O)C4)cn1 [Compound 84, 7-(1-methyl-1H-pyrazol-4-yl)-1,3-dihydro-2H-pyrrolo[2,3-c]isoquinolin-2-one] | > 1000 nM |
| Cn1cc(-c2ccc3cnc4c(c3c2)CC(=O)N4)cn1 [Compound 85, 8-(1-methyl-1H-pyrazol-4-yl)-1,3-dihydro-2H-pyrrolo[2,3-c]isoquinolin-2-one] | 10 to 100 nM |
| c1ncc(-c2ccc3cnc4sc(C5CCN(CC6CC6)CC5)nc4c3c2)s1 [Compound 86, 2-(1-(cyclopropylmethyl)piperidin-4-yl)-8-(thiazol-5-yl)thiazolo[5,4-c]isoquinoline] | 10 to 100 nM |
| CC(C)CN1CCC(c2cc3c(ncc4ccc(-c5cncn5C)cc43)[nH]2)CC1 [Compound 87] | 10 to 100 nM |
| CC(C)CN1CCC(c2cc3c(ncc4ccc(-c5cncs5)cc43)[nH]2)CC1 [Compound 88, 5-(2-(1-isobutylpiperidin-4-yl)-3H-pyrrolo[2,3-c]isoquinolin-8-yl)thiazole] | ≤ 10 nM |
| CC(C)CN1CCC(c2cc3c(ncc4ccc(-c5cn[nH]c5)cc43)[nH]2)CC1 [Compound 89, 2-(1-isobutylpiperidin-4-yl)-8-(1H-pyrazol-4-yl)-3H-pyrrolo[2,3-c]isoquinoline] | 10 to 100 nM |
| Cc1[nH]c2ncc3ccncc3c2c1-c1cccc(C(=O)O)c1 [Compound 95, 3-(8-methyl-7H-pyrrolo[2,3-c][2,6]naphthyridin-9-yl)benzoic acid] | 100 to 1000 nM |

Reference: patent publication US20250066349A1 (Prothena Biosciences Limited, priority 2021, published 2025)
